Assay results taken from EP0516034A1, “Pharmaceutical compositions with immunosuppresive properties” (FIDIA S.p.A., priority 1991, dated 1992).
pIC50: −log10 of the molar value.

Experiments:
Format in all cases: cell-based, human
[1] = tested on: PBMC; test: DNA synthesis ([3H]thymidine incorporation) in PHA-stimulated PBMC; details: PBMC cultured 72 hours with PHA 1 µg/ml; for inhibition of DNA synthesis: result in words
Protocol: The PBMCs were obtained by standard density gradient centrifugation of heparinized human venous blood through a Ficoll-Hypaque cushion. The cells were composed of 90% lymphocytes and 10% monocytes as assessed by acridine orange staining.
DNA Synthesis. The cells were re-suspended in RPMI + 5% FCS and spread on 3072 Falcon microtiter plates at a density of 10⁵ cells in 0.2 ml of final volume. They were cultured for 72 hours at 37°C with PHA 1 µg/ml in the presence or absence of phospholipids. The cells were marked with 1 uCi/well of [³H]thymidine for the last 18 hours culture before being collected on filter paper and counted in a scintillation counter.

[2] = tested on: PBMC; test: Trypan blue exclusion test of cell viability; details: PHA activated PBMC
Protocol: To exclude cytotoxic effect of used derivatives, cell viability (> 99%) was tested before, during, and after the incubation by the trypan blue exclusion test.

[3] = tested on: IL-2 receptor; test: Flow cytometry of IL-2 receptor expression on PHA-stimulated PBMC; details: 72 hours, PHA 1 µg/ml, PS 60 nmol/10⁶ cells; PHA alone 77%
Protocol: (§1) To confirm the DNA synthesis parameter data obtained, a second lymphocyte activity parameter was analysed - the expression of the IL-2 and transferrin receptors on the cell membrane.
(§2) To this purpose, after incubation with PHA 1 µg/ml for 72 hours in the presence or absence of PS, the cells were stained with fluorescent monoclonal antibodies against the above receptor, and then analysed on a FAC Star (Beckton-Dickinson) flow cytometer equipped with an argon ion laser operating at 480 nm and 200 mw.
(§3) 10⁵ PBMC were cultured for 72 hours with PHA 1 µg/ml in the presence or absence of PS 60 nmol/10⁶ cells. Fluorescence intensity (receptor expression) and light diffusion (cell size) were measured using flow cytometry. The data are reported as percentage of cells located in the shown region.

[4] = tested on: transferrin receptor; test: Flow cytometry of transferrin receptor expression on PHA-stimulated PBMC; details: 72 hours, PHA 1 µg/ml, PS 60 nmol/10⁶ cells; PHA alone 54%
Protocol: as §1, §2, §3

| Compound | inhibition of DNA synthesis [1] | also measured |
| --- | --- | --- |
| CCCCCCCC/C=C\CCCCCCCC(=O)OC[C@H](COP(=O)(O)OC[C@H](N)C(=O)O)OC(=O)CCCCCCC/C=C\CCCCCCCC [Dioleyl PS, dioleyl-PS] | same activity as PS containing L-serine |  |
| CCCCCCCCCCCCCCCC(=O)OCC(COC(=O)CCCCCCCCCCCCCCC)OP(=O)(O)OC[C@H](N)C(=O)O [PS-S1, 1,3-dipalmitoylglycero-2-phosphoryl-L-serine, reference compound] | do not inhibit DNA synthesis, but slightly stimulate it |  |
| CCCCCCCC/C=C\CCCCCCCCOCC(COCCCCCCCC/C=C\CCCCCCCC)OP(=O)(O)OC[C@H](N)C(=O)O [PS-S10, 1,3-dioleylglycero-2-phosphoryl-L-serine] | same activity as PS containing L-serine |  |
| CCCCCCCCCCCCCC(=O)OC[C@H](COP(=O)(O)OC[C@H](N)C(=O)O)OC(=O)CCCCCCCCCCCCC [dimyristoyl PS, dimyristoyl-PS, reference compound] | do not inhibit DNA synthesis, but slightly stimulate it |  |
| CCCCCCCCCCCCCCCC(=O)OC[C@H](COP(=O)(O)OC[C@H](N)C(=O)O)OC(=O)CCCCCCCCCCCCCCC [dipalmitoyl PS, dipalmitoyl-PS, reference compound] | do not inhibit DNA synthesis, but slightly stimulate it |  |
| phosphatidic acid [PA, reference compound] | totally inactive |  |
| phosphatidylcolin [PC, reference compound] | totally inactive |  |
| phosphatidylglycerol [PG, reference compound] | totally inactive |  |
| phosphatidylinositol [PI] | active |  |
| phosphatidylserine [PS] | marked inhibition | pIC50 ([1]; corresponds to 30 nmol PS/10⁶ cells, read-out: 50% of the maximum effect, concentration of PS in the medium): 4.82; 50% of the maximum effect (inhibition of DNA synthesis) ([1]; phospholipid as liposomes): 30 nmol/10⁶ cells; Cell viability [2]: not affected; lymphocytes expressing IL-2 receptors [3]: 15%; lymphocytes expressing transferrin receptors [4]: 20% |
